DC50 data for three molecules are collected here from patent US12226424B2, “Target protein degradation compounds, their anti-tumor use, their intermediates and use of intermediates” (ShanghaiTech University, priority 2018, dated 2025).

The subject of assay [1] is CDK4/6 protein. The experiment in a line: Western-blot determination of CDK4/6 protein degradation (DC50) in Jurkat cells. The conditions noted are these: read-out: DC50(nM)/Jurkat cell line. Format: cell-based.
The test system of assay [2] is CDK4/6 protein. The experiment in a line: Western-blot determination of CDK4/6 protein degradation (DC50) in T-47D cells. In kind it is cell-based, human. The conditions noted are these: 24 h drug treatment, read-out: DC50(nM)/T-47D cell line.

For the molecule `CC(=O)c1c(C)c2cnc(Nc3ccc(N4CCN(C(=O)CCCCCCSc5cccc6c5C(=O)N(C5CCC(=O)NC5=O)C6=O)CC4)cn3)nc2n(C2CCCC2)c1=O` (stereo not drawn) [SIAIS184090, 4-((7-(4-(6-((6-acetyl-8-cyclopentyl-5-methyl-7-oxo-7,8-dihydropyrido[2,3-d]pyrimidin-2-yl)amino)pyridin-3-yl)piperazin-1-yl)-7-oxoheptyl)thio)-2-(2,6-dioxopiperidin-3-yl)isoindoline-1,3-dione], the DC50 in the assay on CDK4/6 protein [1] and with CDK4/6 protein [2] was 1 to 10 nM each time.
In the case of `CC(=O)c1c(C)c2cnc(Nc3ccc(N4CCN(C(=O)COCCSc5cccc6c5C(=O)N(C5CCC(=O)NC5=O)C6=O)CC4)cn3)nc2n(C2CCCC2)c1=O` (stereo not drawn) [SIAIS184091, 4-((2-(2-(4-(6-((6-acetyl-8-cyclopentyl-5-methyl-7-oxo-7,8-dihydropyrido[2,3-d]pyrimidin-2-yl)amino)pyridin-3-yl)piperazin-1-yl)-2-oxoethoxy)ethyl)thio)-2-(2,6-dioxopiperidin-3-yl)isoindoline-1,3-dione], the DC50 in the assay on CDK4/6 protein [1] and in the assay on CDK4/6 protein [2] was 1 to 10 nM in each case.
For the molecule `CC(=O)c1c(C)c2cnc(Nc3ccc(N4CCN(C(=O)CCCCSc5cccc6c5CN(C5CCC(=O)NC5=O)C6=O)CC4)cn3)nc2n(C2CCCC2)c1=O` (stereo not drawn) [SIAIS184092, 3-(4-((5-(4-(6-((6-acetyl-8-cyclopentyl-5-methyl-7-oxo-7,8-dihydropyrido[2,3-d]pyrimidin-2-yl)amino)pyridin-3-yl)piperazin-1-yl)-5-oxopentyl)thio)-1-oxoisoindolin-2-yl)piperidine-2,6-dione], the DC50 is less than 1 nM in the assay on CDK4/6 protein [1] and less than 0.1 nM in the assay with CDK4/6 protein [2].
